In patent US20030129629A1, “Methods and compositions for the identification, assessment, prevention, and therapy of human cancers” (Millennium Pharmaceuticals, Inc., priority 2000, published 2003):

System: 60 cancer cell lines (NCI 60 cancer cell line series)
Experiment: NCI-DTP in vitro cancer screen, sulforhodamine B (SRB) growth inhibition, 48 hour exposure
Format: cell-based, human
Description: Cancer Cell Line Preparation. Sixty cancer cell lines were obtained from the National Cancer Institute Developmental Therapeutics Program (NCI-DTP). Procedures for growing cells and testing compounds have been described previously (Scudiero et al., Cancer Res. 1988, 48:4827-4833; Stinson et al., Anticancer Res.; Myers et al., Electrophoresis 1997, 18:647-653). Cells are plated on day 0 at a density individualized for each cell line so that they will generally be sub-confluent at the end of the assay period. On day 1, a compound is added in the format for a duplicate-well, 5-dose, ten-fold interval dose response study.
No-drug, no-cell and no-growth controls are included. On day 3 the cells are processed for staining with sulforhodamine B (SRB), which reflects the amount of cell mass present at the end of a 48 hour exposure to the test agent. From dose response curves based on the SRB data, various parameters can be determined. […] More precisely, the quantity used in the calculation to be described is the potency measure −log{GI50}.
Activity database (A). […] This subset of compounds was selected from the larger 23,000 compound database available from the DTP. The compounds were selected on the basis of their known mechanism of action and chemical structure. The average potency −log{GI50} was extracted from the comma-delimited text files available through the Web at http://www.nci.nih.gov/intra/lmp/jnwbio.html. Subsequently, these −log{GI50} values were inspected manually and classified as indicating either Low, Medium or High sensitivity to each compound.

O=C1c2c(O)ccc(O)c2C(=O)c2c(NCCNCCO)ccc(NCCNCCO)c21 [Mitoxantrone]
1: classification of cell line as Low(1), Medium(2), High(3) sensitivity to compound (Breast MCF7/ADRr CL5002) | classification of cell line as Low(1), Medium(2), High(3) sensitivity to compound (Breast MDA-MB-231 CL5005) | classification of cell line as Low(1), Medium(2), High(3) sensitivity to compound (Breast MDA-MB-435 CL5011) | classification of cell line as Low(1), Medium(2), High(3) sensitivity to compound (Breast MDA-N CL5012) | classification of cell line as Low(1), Medium(2), High(3) sensitivity to compound (Colon HCC-2998 CL4002) | classification of cell line as Low(1), Medium(2), High(3) sensitivity to compound (Colon HCT-15 CL4015) | classification of cell line as Low(1), Medium(2), High(3) sensitivity to compound (Colon HT29(I) CL4001) | classification of cell line as Low(1), Medium(2), High(3) sensitivity to compound (Colon KM12 CL4017) | classification of cell line as Low(1), Medium(2), High(3) sensitivity to compound (Melanoma SK-MEL-2 CL10005) | classification of cell line as Low(1), Medium(2), High(3) sensitivity to compound (Melanoma SK-MEL-28 CL10008) | classification of cell line as Low(1), Medium(2), High(3) sensitivity to compound (Melanoma UACC-257 CL10021) | classification of cell line as Low(1), Medium(2), High(3) sensitivity to compound (NSCLC EKVX CL1008) | sensitivity classification Low(1)/Medium(2)/High(3) (NSCLC NCI-H332M CL1017) | sensitivity classification Low(1)/Medium(2)/High(3) (Ovarian OVCAR-3 CL6001) | sensitivity classification Low(1)/Medium(2)/High(3) (Ovarian OVCAR-4 CL6002) | sensitivity classification Low(1)/Medium(2)/High(3) (Ovarian OVCAR-5 CL6003) | sensitivity classification Low(1)/Medium(2)/High(3) (Renal TK10 CL9024) | sensitivity classification Low(1)/Medium(2)/High(3) (Renal UO-31 CL9004)
2: classification of cell line as Low(1), Medium(2), High(3) sensitivity to compound (Breast BT-549 CL5013) | classification of cell line as Low(1), Medium(2), High(3) sensitivity to compound (Breast HS-578T CL5006) | classification of cell line as Low(1), Medium(2), High(3) sensitivity to compound (Breast T-47D CL5014) | classification of cell line as Low(1), Medium(2), High(3) sensitivity to compound (CNS SF-268 CL12014) | classification of cell line as Low(1), Medium(2), High(3) sensitivity to compound (CNS SF-295 CL12015) | classification of cell line as Low(1), Medium(2), High(3) sensitivity to compound (Colon COLO-250 CL4010) | classification of cell line as Low(1), Medium(2), High(3) sensitivity to compound (Colon HCT-116 CL4003) | classification of cell line as Low(1), Medium(2), High(3) sensitivity to compound (Colon SW-620 CL4009) | classification of cell line as Low(1), Medium(2), High(3) sensitivity to compound (Leukemia K562(I) CL7005) | classification of cell line as Low(1), Medium(2), High(3) sensitivity to compound (Leukemia RPMI-8226(I) CL7010) | classification of cell line as Low(1), Medium(2), High(3) sensitivity to compound (Melanoma LOX IMVI CL10001) | classification of cell line as Low(1), Medium(2), High(3) sensitivity to compound (Melanoma M14 CL10014) | classification of cell line as Low(1), Medium(2), High(3) sensitivity to compound (Melanoma MALME-3M CL10002) | classification of cell line as Low(1), Medium(2), High(3) sensitivity to compound (Melanoma SK-MEL-5 CL10007) | classification of cell line as Low(1), Medium(2), High(3) sensitivity to compound (Melanoma UACC-62 CL10020) | sensitivity classification Low(1)/Medium(2)/High(3) (NSCLC NCI-H23(I) CL1001) | sensitivity classification Low(1)/Medium(2)/High(3) (NSCLC NCI-H522 CL1003) | sensitivity classification Low(1)/Medium(2)/High(3) (Ovarian IGROV1 CL6010) | sensitivity classification Low(1)/Medium(2)/High(3) (Ovarian OVCAR-8 CL6005) | sensitivity classification Low(1)/Medium(2)/High(3) (Ovarian SK-OV-3 CL6011) | sensitivity classification Low(1)/Medium(2)/High(3) (Prostate DU-145 CL11003) | sensitivity classification Low(1)/Medium(2)/High(3) (Prostate PC-3(I) CL11001) | sensitivity classification Low(1)/Medium(2)/High(3) (Renal 786-0 CL9018) | sensitivity classification Low(1)/Medium(2)/High(3) (Renal A498 CL9013) | sensitivity classification Low(1)/Medium(2)/High(3) (Renal RXF-393 CL9016)
3: classification of cell line as Low(1), Medium(2), High(3) sensitivity to compound (Breast MCF7(I) CL5001) | classification of cell line as Low(1), Medium(2), High(3) sensitivity to compound (CNS SF-539 CL12016) | classification of cell line as Low(1), Medium(2), High(3) sensitivity to compound (CNS SNB-19 CL12002) | classification of cell line as Low(1), Medium(2), High(3) sensitivity to compound (CNS SNB-75(I) CL12005) | classification of cell line as Low(1), Medium(2), High(3) sensitivity to compound (CNS U251(I) CL12009) | classification of cell line as Low(1), Medium(2), High(3) sensitivity to compound (Leukemia CCRF-CEM(I) CL7003) | classification of cell line as Low(1), Medium(2), High(3) sensitivity to compound (Leukemia HL-60(I) CL7008) | classification of cell line as Low(1), Medium(2), High(3) sensitivity to compound (Leukemia MOLT-4 CL7006) | classification of cell line as Low(1), Medium(2), High(3) sensitivity to compound (Leukemia SR CL7019) | classification of cell line as Low(1), Medium(2), High(3) sensitivity to compound (NSCLC A549/ATCC CL1004) | classification of cell line as Low(1), Medium(2), High(3) sensitivity to compound (NSCLC HOP-62 CL1026) | classification of cell line as Low(1), Medium(2), High(3) sensitivity to compound (NSCLC HOP-92 CL1029) | classification of cell line as Low(1), Medium(2), High(3) sensitivity to compound (NSCLC NCI-H226 CL1013) | sensitivity classification Low(1)/Medium(2)/High(3) (NSCLC NCI-H460 CL1021) | sensitivity classification Low(1)/Medium(2)/High(3) (Renal ACHN CL9023) | sensitivity classification Low(1)/Medium(2)/High(3) (Renal CAKI-1 CL9015) | sensitivity classification Low(1)/Medium(2)/High(3) (Renal SN12C CL9008)
